Laboratory results taken from US11952328B2, “Selective ship inhibitors for treating disease” (THE RESEARCH FOUNDATION FOR THE STATE UNIVERSITY OF NEW YORK, priority 2018, dated 2024).

Assays:
[1] = system: CD8+ T cells; test: CD8 T cell activation (CD69) and degranulation (CD107a) after two-day in vivo treatment; parameters: species or system mice
Method: FIGS. 3B-3E show activation of NK cells and T cells following exposure to the SHIP1 inhibitor 3AC in vivo. NK cells from two-day 3AC- or vehicle-treated mice were stimulated by incubation on uncoated plates, on plates coated with anti-NK1.1, anti-NKp46, or anti-NKG2D antibody, or on uncoated plates but in the presence of PMA and ionomycin. Representative flow plots (FIG. 3B) and box and whisker plots (FIG. 3C) show the frequency of NK cell production of IFNγ determined by intracellular flow cytometry. […] Anti-CD107a (LAMP-1) PE antibody was added for the final 5 hours of incubation. Degranulation of CD8+ T cells was determined by analysis of CD107a expression by flow cytometry. NK cells are defined as NK1.1+CD3ε− and CD8+ T cells as NK1.1-CD3ε+CD8+CD4−. Graphs are representative of at least two independent experiments with at least four 3AC- and vehicle-treated mice per group (FIGS. 3B-3C) or pooled data from two independent experiments is shown (FIGS. 3D-3F). FIG. 3C (unstim: n=4, p=0.0962, Unpaired t test with Welch's correction. NK1.1: n=4, p=0.0038, Two-tailed student's T test. NKG2D: n=4, p=0.0450, Two-tailed student's T test. NKp46: n=4, p=0.0144, Two-tailed student's T test. PMA: p=0.2945, Two-tailed student's T test). FIG. 3D (n=8, p=0.0153, Unpaired T test with Welch's correction). FIG. 3E (n=8, p=0.0009, Two-tailed student's T test) FIG. 3F (n=9, p=0.0083, Two-tailed student's T test).
To determine if SHIP inhibitors are also capable of activating the other major type of cytotoxic lymphocyte the responsiveness of CD8 T cells following the same, short-term, 3AC treatment was examined.

[2] = system: CT26; test: CT26 viability following in vitro treatment; format: cell-based, mice; conditions: in vitro 24 h; only 20 μM vs 0 μM adjusted p=0.0463, other concentrations N.S.
Method: FIG. 7A and FIG. 7B show CT26 (FIG. 7A) and MC-38 (FIG. 7B) viability following in vitro treatment with 3AC for 24 h at indicated doses. Relative viability is expressed as frequency compared to solvent only treated cells. Kill curve summarizes pooled data from three independent experiments using six replicate wells/concentration with mean±SEM indicated. BALB/C mice were challenged with subcutaneous injection of CT26 colon carcinoma cells in the right flank. Mice were treated with either 2 consecutive days of 3AC or vehicle control each week as in FIG. 4A. Tumor size at […] 28 days (FIG. 7C), and tumor weight on day 28 determined after dissection of tumor (FIG. 7E). […] C57BL/6 mice were challenged with subcutaneous injection of MC-38 colon carcinoma cells in the right flank. Mice were treated with either 2 consecutive days of SHIP inhibitor or vehicle control each week as in FIG. 4A. Tumor size at 14, 21 and 25 days (FIG. 7D), and tumor weight (FIG. 7F) on day 25 were determined after dissection of tumor. […] FIG. 7A (n=18 per group. One-way ANOVA with Dunnett's multiple comparisons. 0 μM vs. 20 μM Adjusted p value=0.0463. All other concentrations of SHIP inhibitor compared with solvent only N.S.). FIG. 7B (n=18 per group. One-way ANOVA with Dunnett's multiple comparisons. All concentrations of SHIP inhibitor compared with solvent only N.S.). […]

[3] = system: MC-38 colon carcinoma cells; test: Subcutaneous MC-38 colon carcinoma model; format: in vivo, C57BL/6 mice
Method: FIG. 7A and FIG. 7B show CT26 (FIG. 7A) and MC-38 (FIG. 7B) viability following in vitro treatment with 3AC for 24 h at indicated doses. Relative viability is expressed as frequency compared to solvent only treated cells. Kill curve summarizes pooled data from three independent experiments using six replicate wells/concentration with mean±SEM indicated. BALB/C mice were challenged with subcutaneous injection of CT26 colon carcinoma cells in the right flank. Mice were treated with either 2 consecutive days of 3AC or vehicle control each week as in FIG. 4A. Tumor size at […] 28 days (FIG. 7C), and tumor weight on day 28 determined after dissection of tumor (FIG. 7E). […] C57BL/6 mice were challenged with subcutaneous injection of MC-38 colon carcinoma cells in the right flank. Mice were treated with either 2 consecutive days of SHIP inhibitor or vehicle control each week as in FIG. 4A. Tumor size at 14, 21 and 25 days (FIG. 7D), and tumor weight (FIG. 7F) on day 25 were determined after dissection of tumor. […] FIG. 7A (n=18 per group. One-way ANOVA with Dunnett's multiple comparisons. 0 μM vs. 20 μM Adjusted p value=0.0463. All other concentrations of SHIP inhibitor compared with solvent only N.S.). FIG. 7B (n=18 per group. One-way ANOVA with Dunnett's multiple comparisons. All concentrations of SHIP inhibitor compared with solvent only N.S.). FIGS. 7C-7F graphs represent data from one of two independent experiments. FIG. 7C (n=10. Day 14 p<0.0001, Unpaired t test with Welch's correction. Day 21 p<0.0001, two-tailed student's t-test. Day 28 p<0.0001, two-tailed Student's t-test). FIG. 7E (n=10. P<0.0001, two-tailed Student's t-test) FIG. 7D (n=10. Day 14 p=0.0005, two-tailed student's t-test. Day 21 p=0.0009, two-tailed Student's t-test. Day 25 p=0.0009, two-tailed student's t-test). FIG. 7F (n=10. P=0.0067, two-tailed student's t-test).
Colorectal cancer is the second leading cause of cancer mortality in the United States (Siegel, R. L. et al., Colorectal cancer statistics, 2017. CA Cancer J Clin. (2017)). […]

[4] = splenic CD8+ T cells, two-day 3AC vs vehicle

CC(C)CCC[C@@H](C)[C@H]1CC[C@H]2[C@@H]3CCC4C[C@H](N)CC[C@]4(C)[C@H]3CC[C@]12C (stereo partly drawn) [Compound 3AC, 3-α-aminocholestane]
percentage of activated CD8 T cells (CD69 expression) [1, 4]: significantly increased | surface expression of CD69 amongst CD8 T cells [1, 4]: increased | LAMP-1 (CD107a) expression of CD8 T cells (degranulation) ([1]; splenic CD8 T cells, crosslinking of TcR and CD28 (anti-CD3, anti-CD28) overnight): increased frequency | CT26 viability (direct killing) [2]: resistant to direct killing | tumor weight ([3]; day 25, vs vehicle): significant reduction | tumor size ([3]; two consecutive days each week, days 14, 21, 25, vs vehicle): significant reduction | histological analysis (H&E) of tumors ([3]; vs vehicle): prominent zones of tumor cell death
